# Source: patent US11974574B2, “Compositions and related methods for modulating endosymbionts” (Flagship Pioneering Innovations V, Inc., priority 2017, dated 2024)
# {Cy3} = Cy3 dye attached by click chemistry
# B1: Bcr1 dsRNA: dsRNA hairpin targeting the Bcr1 gene (ACYPI32128), SEQ ID NO: 93 (nucleic acid, listed as Acyrthosiphon pisum)
# chain: AUGAAACUGCUGCAUGGCUUUCUGAUUAUUAUGCUGACCAUGCAUCUGAGCAUUCAGUAUGCGUAUGGCGGCCCGUUUCUGACCAAAUAUCUGUGCGAUCGCGUGUGCCAUAAACUGUGCGGCGAUGAAUUUGUGUGCAGCUGCAUUCAGUAUAAAAGCCUGAAAGGCCUGUGGUUUCCGCAUUGCCCGACCGGCAAAGCGAGCGUGGUGCUGCAUAACUUUCUGACCAGCCCGUUUUUUUUUUCGGGCUGGUCAGAAAGUUAUGCAGCACCACGCUCGCUUUGCCGGUCGGGCAAUGCGGAAACCACAGGCCUUUCAGGCUUUUAUACUGAAUGCAGCUGCACACAAAUUCAUCGCCGCACAGUUUAUGGCACACGCGAUCGCACAGAUAUUUGGUCAGAAACGGGCCGCCAUACGCAUACUGAAUGCUCAGAUGCAUGGUCAGCAUAAUAAUCAGAAAGCCAUGCAGCAGUUUCAU
# Experiments:
# [1] = test system: Myzus persicae; test: Cy3-PNA in artificial diet, aphid survival (Example 13); type: in vivo; settings: Myzus persicae second and third instar, final 0.5 to 10 mg/L Cy3-PNA, fed 24 hr, mortality checked every 24 h for 4 days
# Protocol: Therapeutic Design: Cy3-PNA Solutions are Formulated with 0, 0.5, 1, 5 or 10 mg/L of Cy3-PNA from Example 11 in 10 mL of 0.5% Sucrose and Essential Amino Acids.
# (§1) To prepare for the treatment, aphids are grown in a lab environment and medium. In a climate-controlled room (16 h light photoperiod; 60±5% RH; 20±2° C.), plants are grown in a mixture of vermiculite and perlite and are infested with aphids. To limit maternal effects or health differences between plants, 5-10 adults from different plants are distributed among 10 two-week-old plants, and allowed to multiply to high density for 5-7 days. For experiments, second and third instar aphids are collected from healthy plants and divided into treatments so that each treatment receives approximately the same number of individuals from each of the collection plants.
# Wells of a 96-well plate are filled with 200 μl of artificial aphid diet (Febvay et al., Canadian Journal of Zoology 66(11):2449-2453, 1988) and the plate is covered with parafilm to make a feeding sachet. Artificial diet is either mixed with the solution of sterile water with 0.5% sucrose and essential amino acids only as a negative control, or mixed with Cy3-PNA solutions. Cy3-PNA solutions are mixed with artificial diet to obtain final concentrations between 0.5 to 10 mg/L. […]
# [2] = test system: its target bacterial strains; settings: against its target bacterial strains; cited from earlier work
# [3] = test system: Myzus persicae; test: Bcr1 dsRNA in artificial diet, aphid survival (Example 9); type: in vivo; settings: Myzus persicae second and third instar, final 0.5 to 5 μg/ml dsRNA, fed 24 hr, mortality checked every 24 h for 4 days
# Protocol: Aphids are one of the most important agricultural insect pests. They cause direct feeding damage to crops and serve as vectors of plant viruses. In addition, aphid honeydew promotes the growth of sooty mold and attracts nuisance ants. The use of chemical treatments, unfortunately still widespread, leads to the selection of resistant individuals whose eradication becomes increasingly difficult. Therapeutic design: dsRNA solutions are formulated with 0 (negative control), 0.5, 1, or 5 μg/mL of Bcr1 dsRNA from Example 7 in 10 mL of TE buffer with 0.5% sucrose and essential amino acids.
# as §1, with “(16 hr” for “(16 h”, “plants. […]” for “plants.”
# [4] = test system: Rhopalosiphum maidis; test: Bcr1 dsRNA in artificial diet, aphid survival (Example 3); type: in vivo; settings: Rhopalosiphum maidis second and third instar, final 0.5 to 5 μg/ml dsRNA, fed 24 hr, mortality checked every 24 h for 4 days
# Protocol: Aphids are one of the most important agricultural insect pests. They cause direct feeding damage to crops and serve as vectors of plant viruses. In addition, aphid honeydew promotes the growth of sooty mold and attracts nuisance ants. The use of chemical treatments, unfortunately still widespread, leads to the selection of resistant individuals whose eradication becomes increasingly difficult. Therapeutic design: dsRNA solutions are formulated with 0 (negative control), 0.5, 1, or 5 μg/ml of Bcr1 dsRNA from Example 2 in 10 mL of TE buffer with 0.5% sucrose and essential amino acids.
# as §1, with “C.), fava bean” for “C.),”, “plants. […]” for “plants.”
molecule,measurement,setting,value
"Cy3-Gaatgcagctgc (antisense GAATGCAGCTGC; all peptide nucleic acid (PNA), 5' {Cy3}; Cy3 attached via DBCO-azide click chemistry) [Cy3-PNA, antisense PNA against bacteriocyte target gene Bcr1 joined to Cy3 dye through click chemistry]",survival rate of aphids compared to the control treated aphids,[1],decreased
ITSISLCTPGCKTGALMGCNMKTATCHCSIHVSK [nisin],concentration showing antimicrobial activity,[2],single-digit nanomolar concentration
B1,survival rate of aphids compared to the control treated aphids,[3],decreased
same,survival rate of aphids compared to the control treated aphids,[4],decreased
